Series [1] relates to nuclear β-catenin in SW480 cells. Nature of the series: β-catenin immunofluorescence and western blot localization in SW480 cells. The format is cell-based, human. The note with it: data not shown. The protocol:
FIG. 4. COMPOUND 1 decreases nuclear β-catenin • A. β-catenin immunofluorescence microscopy. Log phase SW480 (left) and HCT116 (right) cells were fixed and stained with either anti-β-catenin red (upper panel, A) or anti-CBP (upper panel, B) green. The center panel represents the superimposed β-catenin and CBP in SW480 (left) and HCT116 (right) cells. […] 25 μg of total protein from the cell extracts of SW480 cells with or without 24 hr treatment of COMPOUND1 was used for detection of cytosolic and nuclear β-catenin.
Immunofluorescence was used to examine the localization of CBP and β-catenin in SW480 and HCT116 cells treated with COMPOUND 1 (25 μM) or control (0.5% DMSO). Cells at log phase were seeded and after 24 hours, the cells were treated with COMPOUND 1 or control. 24 hours post treatment, cells were fixed. The coverslips were incubated with antibodies raised against CBP (A-22) (Santa Cruz Biotechnology) and β-catenin (Transduction Laboratories), respectively. The slides were examined using a Nikon PCM 2000 Laser Scanning Confocal Microscope after the secondary antibodies conjugated to either FITC or TRITC (Jackson ImmunoResearch, Westgrove, Pa.) were applied.
The subcellular distribution of β-catenin and CBP was examined in order to determine whether the localization of either was affected by COMPOUND 1. […]

In series [2] the test system is Min mouse. Nature of the series: Polyp number in Min mouse model. It counts as in vivo. The protocol: COMPOUND 4, COMPOUND 5, or vehicle was administrated in wild type and Min mice. COMPOUND 4 is also an analog of COMPOUND 1 (FIG. 1A). The numbers of polyp formed in small intestine and colon of these mice after various treatments were measured (Table 6).
Series [3] in a line: Bioavailability study in mouse. The format is in vivo. The note with it: i.v and p.o, 10 mg/kg, 20% Tween 80. The protocol: (§1) Bioavailability of COMPOUND 3, COMPOUND 4 and COMPOUND 5 was studied in mouse and rat. All the compounds were administered (i.v and p.o, 10 mg/kg) using the same vehicle (i.e., 20% Tween 80).
Series [4] can be described thus: Bioavailability study in rat. It counts as in vivo. The note with it: i.v and p.o, 10 mg/kg, 20% Tween 80. The protocol:
as §1

A short description of series [5]: Metabolism in human liver microsome (HPLC/MS). To be noted: 5 minutes to 1 hour. The format is in vitro ADME. The procedure: (§2) FIG. 10. Metabolism analysis of COMPOUND3 • A. The diode Array trace (upper panel) and the total ion current (lower panel) for COMPOUND3 and metabolites thereof in rat. • B. The diode Array trace (upper panel) and the total ion current (lower panel) for COMPOUND3 and metabolites thereof in human.
(§3) Metabolism of COMPOUND 3 was analyzed by incubating the compound with rat or human liver microsome for 5 minutes to 1 hour, fractioning extracts of treated microsome through HPLC and subjecting the fractions to MS analysis.

In series [6] the test system is 293. To be noted: 293, Renal. The procedure: (§4) Cytotoxicity of COMPOUND 3 (an analog of COMPOUND 1, FIG. 1A) and other anticancer therapeutics were measured using cancer cells with various origins.
Series [7] has as its system RPM17951. To be noted: RPM17951, Melanoma. The procedure:
as §4

Series [8] concerns MCF7. To be noted: MCF7, Breast. The protocol: as §4
The test system of series [9] is HL60. To be noted: HL60, Leukemia. The procedure: as §4
Series [10] relates to PC3. The note with it: PC3, Prostate. The procedure: as §4
For series [11], the system named is A549. To be noted: A549, Lung. The protocol:
as §4

Series [12] is described as follows: Metabolism in rat liver microsome (HPLC/MS). It counts as in vitro ADME. To be noted: 5 minutes to 1 hour. The protocol: as §2, §3
On the technique in general: Microsomes from liver hold many membrane-bound enzymes, among them those of drug oxidation.

`CCC(=C/[C@H](C)C/C=C/C(C)=C/[C@@H](C)C(=O)[C@@H](C)[C@H](O)[C@@H](C)C/C(C)=C/C(=O)O)/C=C/[C@@H]1OC(=O)C=C[C@@H]1C` [leptomycin B, reference compound]: the “Effect of nuclear transport inhibitor on COMPOUND 1-induced β-catenin transport” value in series [1] is “eliminated COMPOUND 1-induced cytoplasmic transport of β-catenin”.

Turning to `CN1CC(=O)N2C(Cc3ccc(O)cc3)C(=O)N(Cc3ccc(F)cc3F)CC2N1C(=O)NCc1ccccc1` (stereo not shown) [COMPOUND 5], the “Effect on number of polyp compared to vehicle control” value in series [2] (Min mice, about 300 mpk) is on record as “reduce the number of polyp”. For the same molecule, the “Polyp Number (Mean + S.D.), Total” value in series [2] (Min mouse) is on record as 71.4 ± 23.0. In series [2] (Min mouse, 100 mpk), the “Polyp Number (Mean + S.D.), Colon” value amounted to 1.7 ± 1.5 and the “Polyp Number (Mean + S.D.), Small intestine” value came to 69.2 ± 20.8. Moreover, in series [2] (Min mouse, 300 mpk), the “Polyp Number (Mean + S.D.), Colon” value is given as 1.1 ± 1.2; the “Polyp Number (Mean + S.D.), Small intestine” value turned out to be 46.1 ± 17.1; the “Polyp Number (Mean + S.D.), Total” value is 47.0 ± 16.9. For the same molecule, in [2] (Min mouse, 300 mpk, total polyp number vs. vehicle), the “% Inhibition vs. VH” value turned out to be 31%. In series [3], this molecule displayed a Bioavailability of roughly 0%.

As to `CN1CC(=O)N2C(Cc3ccc(O)cc3)C(=O)N(Cc3cccc4ccccc34)CC2N1C(=O)NCc1ccccc1` (stereo not shown) [COMPOUND 3], in series [4], the Bioavailability result is reported as “about 24%”. The Metabolites observed entry in [5] is given as “Several metabolites (e.g., M1, M2, M3) were observed”; in series [12], “Several metabolites (e.g., M1, M2, M3) were observed”. In addition, the Cytotoxicity in [6] worked out at 0.731 µg/mL; in series [7] it was 0.936 µg/mL; in series [8] it was 7.355 µg/mL; in series [9] it was 1.243 µg/mL; in series [10], 1.207 µg/mL; in [11], 1.386 µg/mL.

Values taken from patent publication US7531320B2, “Modulation of β-catenin/TCF-activated transcription” (priority 2003, dated 2009).
